# “And” between values parts separate entries of the source, which are not always exact repeats. Identical values can stand only once. Like-named read-outs stand apart in the source and are kept apart here.
# How the values were obtained:
# [1] = molecular target: T1, chymotrypsin-like activity of the purified rabbit 20S proteasome (Oryctolagus cuniculus, UniProt G1T4Q9); assay: 20S proteasome inhibition assay, fluorogenic substrate Suc-Leu-Leu-Val-Tyr-AMC; assay type: biochemical; conditions: for proteasome inhibitory activity, SAR statement in words: chymotrypsin-like activity, compared with lead or analogue; for decrease of proteasome inhibition activity: 14u, 14v vs linear-chain analogues, 14q vs lead compound 10a;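 on all read-outs here: enzyme and 20 µM substrate incubated 1 h at 37 °C in Tris-HCl buffer pH 7.6, fluorogenic read-out, inhibition calculated against vehicle control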
# T1 sequence (G1T4Q9 1-263): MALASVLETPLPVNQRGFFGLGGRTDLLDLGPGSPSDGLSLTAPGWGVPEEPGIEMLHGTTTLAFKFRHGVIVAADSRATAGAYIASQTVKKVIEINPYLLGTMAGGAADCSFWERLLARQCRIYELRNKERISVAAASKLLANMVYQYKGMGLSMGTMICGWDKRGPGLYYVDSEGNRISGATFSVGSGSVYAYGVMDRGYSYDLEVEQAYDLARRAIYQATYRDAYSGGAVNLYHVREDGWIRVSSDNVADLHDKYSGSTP
# Experimental: 20S Proteasome Inhibition Assay
# In our work, we used chymotrypsin-like substrate Suc-Leu-Leu-Val-Tyr-AMC to test the proteasome inhibition activity of the synthesized compounds.
# The assay was conducted by using a fluorogenic peptide as substrate to test synthesized compounds for inhibitory activity against the chymotrypsin-like activity of the purified rabbit 20S proteasome. Briefly, 70 ng of purified 20S proteasome was incubated with 20 μM Suc-Leu-Leu-Val-Tyr-AMC for 1 hour at 37° C. in 100 μl of assay buffer (50 mM Tris-HCl, pH 7.6) with or without inhibitors. […] The inhibitory activity of the compounds was calculated based on vehicle control.
# [2] = molecular target: T2, CT-L (Homo sapiens, UniProt P28074); assay: Inhibition of CT-L in cell culture; assay type: cell-based
# T2 construct: endogenous in cells
# T2 sequence (P28074 60-263): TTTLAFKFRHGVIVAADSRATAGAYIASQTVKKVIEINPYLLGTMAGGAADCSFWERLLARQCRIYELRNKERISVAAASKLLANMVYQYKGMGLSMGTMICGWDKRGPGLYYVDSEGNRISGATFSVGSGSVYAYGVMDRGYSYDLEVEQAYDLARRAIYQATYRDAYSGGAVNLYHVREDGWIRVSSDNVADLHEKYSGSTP
# [3] = system: human tumor cell lines (breast, pancreatic and ovarian); assay: Selective inhibition of human tumor cell lines over normal cells; assay type: cell-based; conditions: three human tumor cell lines (breast, pancreatic, ovarian) over normal cells
# [4] = individual determinations (runs M-1096, M-1098, M-1099, AK or dated), read-out: Chymotrypsin-like Activity IC50
# [5] = mean of the individual determinations, read-out: Chymotrypsin-like Activity IC50 (μM), mean ± spread (n)
# [6] = read-out: IC50 (μM)* In Cell culture against CT-L
# [7] = 30 μM, runs M-1096, M-1098, M-1099
Structure (SMILES),"IC50 [1, 4]","IC50 [1, 5] [µM]","IC50 [2, 6]",melting point,other results
"O=S(=O)(Nc1cc(Sc2ncn[nH]2)c(O)c2ccccc12)c1cccs1 [YG1-159-2, N-(3-(1H-1,2,4-triazol-5-ylthio)-4-hydroxynaphthalen-1-yl)thiophene-2-sulfonamide]",1.4 µM and 6.55 µM and 7.4 µM and 5.6 µM and 6.6 µM and 0.85 µM and 1.12 µM,4.22,4.8 µM and 5.1 µM,–,"proteasome inhibitory activity, SAR statement in words [1]: comparable inhibition potency"
"COC(=O)CCSc1cc(NS(=O)(=O)c2cccs2)c2ccccc2c1O [9b, Methyl 3-(1-hydroxy-4-(thiophene-2-sulfonamido)naphthalen-2-ylthio)propanoate]",–,–,–,117 to 119 °C,–
"CCOC(=O)CSc1cc(NS(=O)(=O)c2ccc(-c3ccccc3)cc2)c2ccccc2c1O [14r, Ethyl 2-(4-(biphenyl-4-ylsulfonamido)-1-hydroxynaphthalen-2-ylthio)acetate]",–,–,–,166 to 168 °C,–
"O=C(O)CSc1cc(NS(=O)(=O)c2ccc(-c3ccccc3)cc2)c2ccccc2c1O [YG1-152, 2-(4-(biphenyl-4-ylsulfonamido)-1-hydroxynaphthalen-2-ylthio)acetic acid]",0.81 µM and 2.48 µM and 2.28 µM and 1.74 µM and 2.2 µM,–,> 100 µM and 83 µM,–,"IC50 ([1]; value quoted in running text / FIG. 11, read-out: IC50 against chymotrypsin-like proteasome activity): 1.9 µM"
"CC(Sc1cc(NS(=O)(=O)c2ccc3ccccc3c2)c2ccccc2c1O)C(=O)O (stereo not drawn) [YG2-024-2, 2-(1-hydroxy-4-(naphthalene-2-sulfonamido)naphthalen-2-ylthio)propanoic acid]",9.6 µM and 8.45 µM,–,–,176 to 178 °C,decrease of proteasome inhibition activity [1]: ~2 fold
"CCOC(=O)CSc1cc(NS(=O)(=O)c2ccccc2)c2ccccc2c1O [YG1-113, Ethyl 2-(1-hydroxy-4-(phenylsulfonamido)naphthalen-2-ylthio)acetate]",1.74 µM and 7 µM and 8.7 µM and 2.75 µM and 6.4 µM,–,–,118 to 120 °C,"proteasome inhibitory activity, SAR statement in words [1]: reduced compared to acid analogues"
"O=C1C(N2CCOCC2)=C/C(=N\S(=O)(=O)c2cccs2)c2ccccc21 [YG1-129, N-(3-morpholino-4-oxonaphthalen-1(4H)-ylidene)thiophene-2-sulfonamide]",> 10 µM,–,–,195 °C (dec.),–
"O=C(O)CSc1cc(NS(=O)(=O)c2cc(Cl)c(Cl)s2)c2ccccc2c1O [HL4-098-2, 2-(4-(4,5-dichlorothiophene-2-sulfonamido)-1-hydroxynaphthalen-2-ylthio)acetic acid]",1.05 µM and 2.4 µM and 2.67 µM,–,25 µM and 17.4 µM,–,–
"Cn1nnnc1Sc1cc(NS(=O)(=O)c2cccs2)c2ccccc2c1O [YG1-159-1, N-(4-hydroxy-3-(1-methyl-1H-tetrazol-5-ylthio)naphthalen-1-yl)thiophene-2-sulfonamide]",2.11 µM and 6.45 µM and 6.6 µM and 6.55 µM and 1.54 µM and 2.18 µM,–,6.4 µM,–,"proteasome inhibitory activity, SAR statement in words [1]: comparable inhibition potency"
"CC(Sc1cc(NS(=O)(=O)c2ccc(Cl)cc2)c2ccccc2c1O)C(=O)O (stereo not drawn) [YG2-024-1, 2-(4-(4-chlorophenylsulfonamido)-1-hydroxynaphthalen-2-ylthio)propanoic acid]",9.5 µM and > 10 µM and 8 µM,–,–,177 to 179 °C,decrease of proteasome inhibition activity [1]: ~2 fold
"CC(C)(C)OC(=O)COC1=CC(=O)c2ccccc2C1=O [YL2-013, tert-Butyl 2-(1,4-dioxo-1,4-dihydronaphthalen-2-yloxy)acetate]",> 10 µM,–,–,120 to 122 °C,–
"O=C(O)c1ccccc1Sc1cc(NS(=O)(=O)c2ccc(-c3ccccc3)cc2)c2ccccc2c1O [YG1-168, 2-(4-(biphenyl-4-ylsulfonamido)-1-hydroxynaphthalen-2-ylthio)benzoic acid]",2.32 µM and 2.44 µM and 1.84 µM,–,–,205 °C (dec.),–
"O=S(=O)(Nc1cc(I)c(O)c2ccccc12)c1cccs1 [YG1-033, N-(3-iodo-4-hydroxynaphthalen-1-yl)thiophene-2-sulfonamide]",26 µM and > 100 µM and 28 µM,–,–,134 to 136 °C,–
"O=C(O)c1ccccc1Sc1cc(NS(=O)(=O)c2cccs2)c2ccccc2c1O [YG1-155, 2-(1-hydroxy-4-(thiophene-2-sulfonamido)naphthalen-2-ylthio)benzoic acid]",1.12 µM and 4.6 µM and 5.32 µM and 7.7 µM and 7.1 µM and 1.04 µM and 1.5 µM,4.05,–,215 °C (dec.),–
"O=C1C(Cl)=C(Nc2ccc(S(=O)(=O)Nc3ccccn3)cc2)C(=O)c2ccccc21 [PI-083, reference compound]",2.1 µM and 1.4 µM and 2.5 µM and 0.9 µM,1.73,4.3 µM and 3.7 µM,–,"Chymotrypsin-like Activity Inhibition at 30 μM [1, 7]: 86% and 83%; inhibition at 30 µM [1, 7]: 87%; selective inhibition of tumor cell lines over normal cells [3]: selective inhibition"
"O=C(O)CCSc1cc(NS(=O)(=O)c2cccs2)c2ccccc2c1O [YG1-116, 3-(1-hydroxy-4-(thiophene-2-sulfonamido)naphthalen-2-ylthio)propanoic acid]",7.4 µM,–,–,185 °C (dec.),"proteasome inhibitory activity, SAR statement in words [1]: the inhibitory activity diminished"
"O=C(O)CSC1=CC(=NS(=O)(=O)c2cccs2)c2ccccc2C1=O (stereo in doubt) [YG2-176, (Z)-2-(1-oxo-4-(thiophen-2-ylsulfonylimino)-1,4-dihydronaphthalen-2-ylthio)acetic acid]",2.28 µM and 2.12 µM and 2.4 µM,2.27,8.9 µM and 6.9 µM,–,"proteasome inhibitory activity, SAR statement in words [1]: comparable inhibitory potency"
"O=C(O)CSc1cc(NS(=O)(=O)c2ccc(Cl)s2)c2ccccc2c1O [YG1-153, 2-(4-(5-chlorothiophene-2-sulfonamido)-1-hydroxynaphthalen-2-ylthio)acetic acid]",0.73 µM and 2.42 µM and 2.7 µM and 2.3 µM and 2.2 µM,2.07,8 µM and 10 µM,–,–
"COC(=O)CCSC1=C/C(=N\S(=O)(=O)c2cccs2)c2ccccc2C1=O [8b, Methyl 3-(1-oxo-4-(thiophen-2-ylsulfonylimino)-1,4-dihydronaphthalen-2-ylthio) propanoate]",–,–,–,140 to 142 °C,–
"O=C(O)CSc1cc(NS(=O)(=O)c2ccc3ccccc3c2)c2ccccc2c1O [YG2-034-2, 2-(1-hydroxy-4-(naphthalene-2-sulfonamido)naphthalen-2-ylthio)acetic acid]",> 10 µM and 4 µM and 5.9 µM,–,–,185 to 187 °C,decrease of proteasome inhibition activity [1]: 3 fold
"CCOC(=O)CSC1=C/C(=N\S(=O)(=O)c2ccccc2)c2ccccc2C1=O [YG1-110, Ethyl 2-(1-oxo-4-(phenylsulfonylimino)-1,4-dihydronaphthalen-2-ylthio)acetate]",1.04 µM and 1.86 µM and 2.06 µM and 2.35 µM and 3.8 µM,2.22,–,93 to 95 °C,–
"O=C1C(Sc2ncn[nH]2)=C/C(=N\S(=O)(=O)c2cccs2)c2ccccc21 [YG1-158-2, N-(3-(1H-1,2,4-triazol-5-ylthio)-4-oxonaphthalen-1(4H)-ylidene)thiophene-2-sulfonamide]",1.34 µM and 4.38 µM and 3.85 µM and 2.1 µM and 2.09 µM,2.75,–,197 °C (dec.),–
"CCSC1=C/C(=N\S(=O)(=O)c2cccs2)c2ccccc2C1=O [YG2-086-1, N-(3-(ethylthio)-4-oxonaphthalen-1(4H)-ylidene)thiophene-2-sulfonamide]",9.4 µM and 9.85 µM,–,–,–,–
"CN(C)C(=O)CCSC1=C/C(=N\S(=O)(=O)c2cccs2)c2ccccc2C1=O [HL4-078-1, N,N-dimethyl-3-(1-oxo-4-(thiophen-2-ylsulfonylimino)-1,4-dihydronaphthalen-2-ylthio)propanamide]",4.7 µM and 9.65 µM and 9.56 µM and 8.5 µM and > 10 µM,8.1,–,–,–
"O=C(O)c1cccc(NC2=C/C(=N\S(=O)(=O)c3cccs3)c3ccccc3C2=O)c1 [YG1-174, 3-(1-oxo-4-(thiophen-2-ylsulfonylimino)-1,4-dihydronaphthalen-2-ylamino)-benzoic acid]",> 10 µM,–,–,–,–
"O=C(O)CSc1cc(NS(=O)(=O)c2cccs2)c2ccccc2c1O [HLM008182, 2-(1-hydroxy-4-(thiophene-2-sulfonamido)naphthalen-2-ylthio)acetic acid]",–,2.2,8.9 µM,–,"proteasome inhibitory activity, SAR statement in words [1]: comparable proteasome inhibition activity; IC50 ([1]; sample kept r.t. 2 weeks in DMSO, read-out: Chymotrypsin-like Activity IC50 (μM), r.t. 2 weeks in DMSO (converted)): 2.76 µM and 1.64 µM; IC50 ([2]; listed as YG1-066, read-out: IC50 (μM)* In Cell culture against CT-L): 7.3 µM"

# — patent US8466157B2, “Proteasome inhibitors having chymotrypsin-like activity” (University of South Florida, priority 2009, dated 2013)
